# Laboratory results published in patent US12473304B2, “Heterocyclic PAD4 inhibitors” (BRISTOL-MYERS SQUIBB COMPANY, priority 2020, dated 2025).
# Target: human PAD4 (hPAD4) (Homo sapiens (Human), UniProt Q9UM07)
# Assay: RFMS Human PAD4 Functional Assay 1
# Format: biochemical
# Conditions: RFMS assay 1; 5 nM hPAD4, 250 μM BAEE substrate, 50 μM calcium, 37° C.
# How it was run: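 Citrullination product read by RapidFire triple-quad MRM against a modified-citrulline internal standard, after TCA stop and 30 min phenyl glyoxal step at 37 °C. Reaction: 250 μM BAEE, 5 nM human PAD4, 90 min at 37 °C, pH 7.5 HEPES buffer with 50 μM calcium and 5 μM TPEN, following 30 min compound–enzyme preincubation (max 50 μM).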
# Chain of human PAD4 (hPAD4) (Q9UM07 whole entry): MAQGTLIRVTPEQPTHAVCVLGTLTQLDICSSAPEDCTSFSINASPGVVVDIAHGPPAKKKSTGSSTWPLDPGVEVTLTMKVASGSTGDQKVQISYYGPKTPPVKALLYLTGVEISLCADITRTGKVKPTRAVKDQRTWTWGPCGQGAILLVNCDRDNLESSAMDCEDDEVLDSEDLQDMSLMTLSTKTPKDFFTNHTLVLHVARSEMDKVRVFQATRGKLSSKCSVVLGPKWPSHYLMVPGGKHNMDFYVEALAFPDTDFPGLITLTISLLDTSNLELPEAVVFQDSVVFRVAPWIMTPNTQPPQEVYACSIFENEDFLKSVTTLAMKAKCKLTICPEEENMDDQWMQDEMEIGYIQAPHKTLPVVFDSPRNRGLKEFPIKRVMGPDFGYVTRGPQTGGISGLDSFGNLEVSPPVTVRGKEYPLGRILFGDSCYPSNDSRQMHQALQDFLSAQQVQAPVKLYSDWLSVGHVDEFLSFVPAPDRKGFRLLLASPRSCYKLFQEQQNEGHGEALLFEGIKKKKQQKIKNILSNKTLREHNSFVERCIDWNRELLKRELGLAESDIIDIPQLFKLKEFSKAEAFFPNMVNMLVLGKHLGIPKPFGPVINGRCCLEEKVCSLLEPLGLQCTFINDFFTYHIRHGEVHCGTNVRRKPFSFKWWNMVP
row,IC50 [nM],Structure (SMILES)
1,130,"COc1cc(C(=O)N2C[C@H](N)C[C@@H](F)C2)cn2nc(-c3cc4ccc(N5CCC(N(C)S(C)(=O)=O)CC5)cc4n3CC3CC3)c(C)c12 [Example 246, N-[1-(2-{6-[(3R,5R)-3-Amino-5-fluoropiperidine-1-carbonyl]-4-methoxy-3-methylpyrazolo[1,5-a]pyridin-2-yl}-1-(cyclopropylmethyl)-1H-indol-6-yl)piperidin-4-yl]-N-methylmethanesulfonamide]"
2,120,"COc1cc(C(=O)N2C[C@H](N)C[C@@H](F)C2)cn2nc(-c3cc4ccc(N5CC(N(C)S(C)(=O)=O)C5)cc4n3CC3CC3)c(C)c12 [Example 247, N-[1-(2-{6-[(3R,5R)-3-Amino-5-fluoropiperidine-1-carbonyl]-4-methoxy-3-methylpyrazolo[1,5-a]pyridin-2-yl}-1-(cyclopropylmethyl)-1H-indol-6-yl)azetidin-3-yl]-N-methylmethanesulfonamide]"
3,60,"COc1cc(C(=O)N2CCC[C@@H](N)C2)cn2nc(-c3cc4ccc(N5CCC(S(C)(=O)=O)CC5)cc4n3CC3CC3)c(C)c12 [Example 248, (3R)-1-{2-[1-(Cyclopropylmethyl)-6-(4-methanesulfonylpiperidin-1-yl)-1H-indol-2-yl]-4-methoxy-3-methylpyrazolo[1,5-a]pyridine-6-carbonyl}piperidin-3-amine]"
4,80,"COc1cc(C(=O)N2CCC[C@@H](N)C2)cn2nc(-c3cc4ccc(N5CCC(OC)CC5)cc4n3CC3CC3)c(C)c12 [Example 249, (3R)-1-{2-[1-(Cyclopropylmethyl)-6-(4-methoxypiperidin-1-yl)-1H-indol-2-yl]-4-methoxy-3-methylpyrazolo[1,5-a]pyridine-6-carbonyl}piperidin-3-amine]"
5,90,"COc1cc(C(=O)N2CCC[C@@H](N)C2)cn2nc(-c3cc4ccc(N5CCC(CC(=O)N(C)C)CC5)cc4n3CC3CC3)c(C)c12 [Example 250, 2-[1-(2-{6-[(3R)-3-Aminopiperidine-1-carbonyl]-4-methoxy-3-methylpyrazolo[1,5-a]pyridin-2-yl}-1-(cyclopropylmethyl)-1H-indol-6-yl)piperidin-4-yl]-N,N-dimethylacetamide]"
6,180,"COc1cc(C(=O)N2CCC[C@@H](N)C2)cn2nc(-c3cc4ccc(N5CCC(C(=O)N6CC(OC)C6)CC5)cc4n3CC3CC3)c(C)c12 [Example 251, (3R)-1-{2-[1-(Cyclopropylmethyl)-6-[4-(3-methoxyazetidine-1-carbonyl)piperidin-1-yl]-1H-indol-2-yl]-4-methoxy-3-methylpyrazolo[1,5-a]pyridine-6-carbonyl}piperidin-3-amine]"
7,790,"COc1cc(C(=O)N2CCC[C@@H](N)C2)cn2nc(-c3cc4ccc(N5CCC(N(C)C(C)=O)CC5)cc4n3CC3CC3)c(C)c12 [Example 252, N-[1-(2-{6-[(3R)-3-Aminopiperidine-1-carbonyl]-4-methoxy-3-methylpyrazolo[1,5-a]pyridin-2-yl}-1-(cyclopropylmethyl)-1H-indol-6-yl)piperidin-4-yl]-N-methylacetamide]"
8,290,"COc1cc(C(=O)N2CCC[C@@H](N)C2)cn2nc(-c3cc4ccc(N5CCC(N(C)C(C)=O)CC5)cc4n3CC3CC3)c(C)c12 [Example 253, N-[1-(2-{6-[(3R)-3-Aminopiperidine-1-carbonyl]-4-methoxy-3-methylpyrazolo[1,5-a]pyridin-2-yl}-1-(cyclopropylmethyl)-1H-indol-6-yl)piperidin-4-yl]-N-methylacetamide]"
9,320,"COc1cc(C(=O)N2CCC[C@@H](N)C2)cn2nc(-c3cc4ccc(N5CCC(N(C)S(C)(=O)=O)CC5)cc4n3CC3CC3)c(C)c12 [Example 254, N-[1-(2-{6-[(3R)-3-Aminopiperidine-1-carbonyl]-4-methoxy-3-methylpyrazolo[1,5-a]pyridin-2-yl}-1-(cyclopropylmethyl)-1H-indol-6-yl)piperidin-4-yl]-N-methylmethanesulfonamide]"
10,250,"COC(=O)N(C)C1CCN(c2ccc3cc(-c4nn5cc(C(=O)N6CCC[C@@H](N)C6)cc(OC)c5c4C)n(CC4CC4)c3c2)CC1 [Example 255, Methyl N-[1-(2-{6-[(3R)-3-aminopiperidine-1-carbonyl]-4-methoxy-3-methylpyrazolo[1,5-a]pyridin-2-yl}-1-(cyclopropylmethyl)-1H-indol-6-yl)piperidin-4-yl]-N-methylcarbamate]"
11,330,"COc1cc(C(=O)N2CCC[C@@H](N)C2)cn2nc(-c3cc4ccc(N5CC(N(C)S(C)(=O)=O)C5)cc4n3CC3CC3)c(C)c12 [Example 256, N-[1-(2-{6-[(3R)-3-Aminopiperidine-1-carbonyl]-4-methoxy-3-methylpyrazolo[1,5-a]pyridin-2-yl}-1-(cyclopropylmethyl)-1H-indol-6-yl)azetidin-3-yl]-N-methylmethanesulfonamide]"
12,60,"Cc1c(-c2cc3ccc(-c4ccccc4N4CCNC4=O)nc3n2CC2CC2)nn2cc(C(=O)N3CC4CCC3[C@@H]4N)cc(F)c12 (stereo partly drawn) [Example 257, 1-[2-(2-{6-[(7R)-7-Amino-2-azabicyclo[2.2.1]heptane-2-carbonyl]-4-fluoro-3-methylpyrazolo[1,5-a]pyridin-2-yl}-1-(cyclopropylmethyl)-1H-pyrrolo[2,3-b]pyridin-6-yl)phenyl]imidazolidin-2-one]"
13,220,"Cc1c(-c2cc3ccc(-c4ccc(N5CCCC5=O)cc4)nc3n2CC2CC2)nn2cc(C(=O)N3CC4CCC3[C@@H]4N)cc(F)c12 (stereo partly drawn) [Example 258, 1-[4-(2-{6-[(7R)-7-Amino-2-azabicyclo[2.2.1]heptane-2-carbonyl]-4-fluoro-3-methylpyrazolo[1,5-a]pyridin-2-yl}-1-(cyclopropylmethyl)-1H-pyrrolo[2,3-b]pyridin-6-yl)phenyl]pyrrolidin-2-one]"
14,20,"Cc1c(O)cccc1-c1ccc2cc(-c3nn4cc(C(=O)N5CC6CCC5[C@@H]6N)cc(F)c4c3C)n(CC3CC3)c2n1 (stereo partly drawn) [Example 259, 3-(2-{6-[(7R)-7-Amino-2-azabicyclo[2.2.1]heptane-2-carbonyl]-4-fluoro-3-methylpyrazolo[1,5-a]pyridin-2-yl}-1-(cyclopropylmethyl)-1H-pyrrolo[2,3-b]pyridin-6-yl)-2-methylphenol]"
15,220,"Cc1cc(C(N)=O)c(F)cc1-c1ccc2cc(-c3nn4cc(C(=O)N5CC6CCC5[C@@H]6N)cc(F)c4c3C)n(CC3CC3)c2n1 (stereo partly drawn) [Example 260, 4-(2-{6-[(7R)-7-Amino-2-azabicyclo[2.2.1]heptane-2-carbonyl]-4-fluoro-3-methylpyrazolo[1,5-a]pyridin-2-yl}-1-(cyclopropylmethyl)-1H-pyrrolo[2,3-b]pyridin-6-yl)-2-fluoro-5-methylbenzamide]"
16,420,"Cc1c(-c2cc3ccc(-c4ccc(N5CCNC5=O)cc4)nc3n2CC2CC2)nn2cc(C(=O)N3CC4CCC3[C@@H]4N)cc(F)c12 (stereo partly drawn) [Example 261, 1-[4-(2-{6-[(7R)-7-Amino-2-azabicyclo[2.2.1]heptane-2-carbonyl]-4-fluoro-3-methylpyrazolo[1,5-a]pyridin-2-yl}-1-(cyclopropylmethyl)-1H-pyrrolo[2,3-b]pyridin-6-yl)phenyl]imidazolidin-2-one]"
17,120,"Cc1cc(-c2ccc3cc(-c4nn5cc(C(=O)N6CC7CCC6[C@@H]7N)cc(F)c5c4C)n(CC4CC4)c3n2)ccc1C(N)=O (stereo partly drawn) [Example 262, 4-(2-{6-[(7R)-7-Amino-2-azabicyclo[2.2.1]heptane-2-carbonyl]-4-fluoro-3-methylpyrazolo[1,5-a]pyridin-2-yl}-1-(cyclopropylmethyl)-1H-pyrrolo[2,3-b]pyridin-6-yl)-2-methylbenzamide]"
18,90,"Cc1c(-c2cc3ccc(-c4ccc(C(N)=O)cc4)nc3n2CC2CC2)nn2cc(C(=O)N3CC4CCC3[C@@H]4N)cc(F)c12 (stereo partly drawn) [Example 263, 4-(2-{6-[(7R)-7-Amino-2-azabicyclo[2.2.1]heptane-2-carbonyl]-4-fluoro-3-methylpyrazolo[1,5-a]pyridin-2-yl}-1-(cyclopropylmethyl)-1H-pyrrolo[2,3-b]pyridin-6-yl)benzamide]"
19,10,"CNC(=O)c1ccc(-c2ccc3cc(-c4nn5cc(C(=O)N6CC7CCC6[C@@H]7N)cc(F)c5c4C)n(CC4CC4)c3n2)cn1 (stereo partly drawn) [Example 264, 5-(2-{6-[(7R)-7-Amino-2-azabicyclo[2.2.1]heptane-2-carbonyl]-4-fluoro-3-methylpyrazolo[1,5-a]pyridin-2-yl}-1-(cyclopropylmethyl)-1H-pyrrolo[2,3-b]pyridin-6-yl)-N-methylpyridine-2-carboxamide]"
20,110,"Cc1c(-c2cc3ccc(N4CCC[C@@H](O)C4)nc3n2CC2CC2)nn2cc(C(=O)N3CC4CCC3[C@@H]4N)cc(F)c12 (stereo partly drawn) [Example 265, ((7R)-7-Amino-2-azabicyclo[2.2.1]heptan-2-yl)(2-(1-(cyclopropylmethyl)-6-((R)-3-hydroxypiperidin-1-yl)-1H-pyrrolo[2,3-b]pyridin-2-yl)-4-fluoro-3-methylpyrazolo[1,5-a]pyridin-6-yl)methanone]"
21,280,"Cc1c(-c2cc3ccc(N4CCOCC4)nc3n2CC2CC2)nn2cc(C(=O)N3CC4CCC3[C@@H]4N)cc(F)c12 (stereo partly drawn) [Example 266, (7R)-2-{2-[1-(Cyclopropylmethyl)-6-(morpholin-4-yl)-1H-pyrrolo[2,3-b]pyridin-2-yl]-4-fluoro-3-methylpyrazolo[1,5-a]pyridine-6-carbonyl}-2-azabicyclo[2.2.1]heptan-7-amine]"
22,50,"Cc1c(-c2cc3ccc(N4CCOCC4=O)nc3n2CC2CC2)nn2cc(C(=O)N3CC4CCC3[C@@H]4N)cc(F)c12 (stereo partly drawn) [Example 267, 4-(2-{6-[(7R)-7-Amino-2-azabicyclo[2.2.1]heptane-2-carbonyl]-4-fluoro-3-methylpyrazolo[1,5-a]pyridin-2-yl}-1-(cyclopropylmethyl)-1H-pyrrolo[2,3-b]pyridin-6-yl)morpholin-3-one]"
